# According to patent EP0651636B1, “CHEMOTHERAPY FOR CANCER” (THE JOHNS HOPKINS UNIVERSITY, priority 1992, dated 1994):
# Like-named read-outs stand apart in the source and are kept apart here.
# How the values were obtained:
# normal human fibroblasts = experiment: In vitro growth inhibition assay (crystal violet) with oleic acid supplement; type: cell-based; conditions: for effect on normal human fibroblasts: standard in vitro growth inhibition assays
# Procedure: (§1) In vitro growth inhibition assays for OA-519 inhibition were performed using ZR-75-1 cells or normal human fibroblasts which were grown to confluence, and then 25,000 cells were plated in 1:1 conditioned:fresh medium (RPMI with 10% fetal calf serum) supplemented at a physiologic level to 0.5 millimolar oleic acid bound to previously delipidized bovine serum albumin. Cells were allowed to attach and grow overnight. At time 0, drugs diluted in RPMI medium with 10% fetal calf serum were added to achieve the following concentrations: 50 µg/ml to 0.01 µg/ml with serial two-fold dilutions including no drug and empty well controls. Each concentration was performed in quadruplicate and time points were taken at 4, 8, 24, and 48 h. After drug treatment, cells were stained with crystal violet, solubilized in SDS, and read on a Molecular Diagnostics automated plate reader at 570 nm.
# ZR-75-1 cells [1] = experiment: as above; type: cell-based, human; conditions: for effect on carcinoma cells: standard in vitro growth inhibition assays
# Procedure: as §1
# [2] = system: SK-BR-3 human mammary carcinoma cells; experiment: Crystal violet growth inhibition assay, 48 hour exposure; type: cell-based
# Procedure: (§2) This experiment was performed using the crystal violet growth inhibition assay. Cells with varying degrees of FAS activity were plated at 5000 cells per well in 96 well plates in RPMI-1640 with 10% heat-inactivated fetal bovine serum. After 72 hours of incubation in a humidified 95% air: 5% CO2 atmosphere, varying concentrations (0-500 µg/ml) of TOFA (5-tetradecyloxyl)-2-furoic acid were added and cultures were re-incubated for 48 hours. Plates were then removed and stained with crystal violet as described. Absorbance readings were averaged for each concentration of agent (n=4), control (n=8), and background (n=8). Background readings were subtracted. The concentration of TOFA is plotted against growth (as % of control growth) in Figure 15.
# In these experiments, cells were plated at 5000 cells per well in a 96-well microtiter plate and maintained in RPMI-1640 with 10% heat-inactivated fetal bovine serum for 72 hours. Next, the compounds indicated in Table 4 were added, and cells were incubated for an additional 48 hours. Growth inhibition was then measured using the crystal violet method.
# Vero = conditions: cited from earlier work
# ZR-75-1 cells [3] = experiment: Triacsin-C and cerulenin synergy, crystal violet growth inhibition; type: cell-based; conditions: Homo sapiens, ZR-75-1, 24 h
# Procedure: 96 well microtiter plates were plated with ZR-75-1 cells at 25,000 cells/well and incubated overnight (18 h) at 37° C in 5% CO2. Triacsin-C was added to achieve the following micromolar concentrations in the presence of 0, 2.5, 5.0 or 10.0 µg/ml cerulenin: 50, 25, 12.5, 6.2, 3.1, 1.6, 0.8, 0.4, 0.2, 0.1 and 0. Each concentration was performed in quadruplicate. Cells were incubated for 24 hours, washed in PBS, solubilized in 1% SDS, stained with 0.2% crystal violet in 2% ethanol, and read at 490 nm on a Molecular Diagnostics plate reader.
# Raji cells = conditions: cited from earlier work
# Hela cells = conditions: cited from earlier work
# [4] = biological target: rat liver acyl-CoA synthetase; conditions: read-out: concentration causing 50% inhibition; cited from earlier work
# TSU-pr1 = experiment: Population doubling assay, viable cell count (trypan blue); type: cell-based; conditions: Homo sapiens, 48-hour exposure, relative to untreated cultures, read-out: concentration giving 50% inhibition of population doubling
# Procedure: (§3) TSU-pr1 and Dupro-1 cell lines were plated in RPMI-1640 with 10% fetal bovine serum at 3 X 10^5 and 1 X 10^5 cells respectively/T25 flask in a humidified atmosphere of 95% air: 5% CO2. After 24 hours, initial plating density was measured. In addition, media was replaced (control) or cerulenin was added at 2.5-10 µg/ml to duplicate cultures. Forty-eight hours later, cells were trypsinized and viable cells (trypan blue excluding) counted. The number of population doublings was estimated.
# Dupro-1 = experiment: as above; type: cell-based; conditions: Homo sapiens; 48-hour exposure; relative to untreated cultures; read-out: concentration giving 50% inhibition of population doubling
# Procedure: as §3
# viral HIV protease = viral HIV protease (Human immunodeficiency virus type 1 group M subtype B, UniProt P04585); conditions: cited from earlier work
# MCF-7 cells [5] = experiment: 14C-acetate incorporation into cholesterol; type: cell-based, human; conditions: cerulenin 0, 2.5, 5.0 or 10.0 µg/ml; 6 hours
# Procedure: (§4) Measurement of endogenous fatty acid incorporation into acyl-glycerides: For each cell type, 200,000 cells were plated in triplicate for non-polar and polar lipid analysis. Following overnight growth, each well of cells was incubated for 2 hours with 1 µCi ^14C acetate. ^14C-labeled lipids were extracted as above, and dried under N2. For analysis of non-polar lipids, samples were resuspended in 10 ul chloroform and spotted on silica gel N-HR (Brinkmann) and chromatographed in hexane:ethyl ether:acetic acid, 65:25:4 by volume. Cholesterol, palmitic acid, tripalmitin, and cholesterol palmitate (Matreya) were run as controls at 50 µg each. […] 50 µg each of cholesterol, phosphatidyl ethanolamine, lecithin, and lysolecithin (Matreya) were run as controls. ^14C-labeled lipids were detected and quantified using a Bioscan System 2000 imaging scanner with Autochanger 3000. […] Phosphatidylcholine and triglycerides were the predominant acyl-glycerides detected.
# (§5) Measurement of endogenous fatty acid incorporation into acyl-glycerides and cholesterol: For each cell type, 200,000 cells were plated in triplicate for non-polar and polar lipid analysis for each drug dose in 24 well plates. […] For the last two hours of cerulenin incubation, 1 µCi of ^14C acetate was added per well. ^14C-labeled lipids were then extracted, chromatographed, and detected as described above. […]
# SKBR3 cells = experiment: 14C-acetate incorporation into cholesterol; type: cell-based, human; conditions: cerulenin 0, 2.5, 5.0 or 10.0 µg/ml; 6 hours
# Procedure: as §4, §5
# ZR-75-1 cells [6] = experiment: Oleate rescue from cerulenin growth inhibition; type: cell-based, human; conditions: 10 µg/ml cerulenin for 24 hours; 1.5 mM oleate
# Procedure: ZR-75-1 cells (5,000 per well) were plated in 96 well microtiter plates in medium supplemented with 0, 0.5, 1.0 or 1.5 mM oleate bound to delipidized bovine serum albumin at a molar ration of 4:1. After 18 hours incubation, cerulenin was added at a dose of 10 µg/ml. Cells were stained and assayed as in Example 10 after 24 hours (Figure 17, upper line) or 48 hours (lower line). The middle line of Figure 17 represents cells which were re-fed at 24 hours with medium containing the respective oleate concentration without cerulenin and assayed after a 48 hour total incubation. Error bars represent standard error of the mean.
# MCF-7 cells [7] = experiment: Clonogenic assay; type: cell-based, human; conditions: 10 µg/ml; exposure time 24 hours
# Procedure: Clonogenic assay: One million cells were plated in 25 cm sq. flasks. […] Cells were then trypsinized to a single cell suspension and plated in 16 mm dishes at 1000 or 500 cells per dish in triplicate. Following 3 days incubation for ZR-75-1 and MCF-7 cells, and 7 days for SKBR3 cells, colonies were counted and expressed as the percentage of the untreated control.
# [8] = system: six cell lines listed in Table 3; experiment: 14C-acetate incorporation into acyl-glycerides; type: cell-based, human; conditions: cerulenin 0, 2.5, 5.0 or 10.0 µg/ml; 6 hours
# Procedure: as §4, §5
# [9] = biological target: T1, OA-519 fatty acid synthase (Homo sapiens, UniProt P49327); experiment: Spectrophotometric fatty acid synthase assay (NADPH oxidation at 340 nm); type: biochemical
# T1 construct: endogenous in cells; host or cells: ZR-75-1 breast carcinoma cell line (protein purified from the lysate)
# T1 sequence (P49327 2-2511 limits assumed): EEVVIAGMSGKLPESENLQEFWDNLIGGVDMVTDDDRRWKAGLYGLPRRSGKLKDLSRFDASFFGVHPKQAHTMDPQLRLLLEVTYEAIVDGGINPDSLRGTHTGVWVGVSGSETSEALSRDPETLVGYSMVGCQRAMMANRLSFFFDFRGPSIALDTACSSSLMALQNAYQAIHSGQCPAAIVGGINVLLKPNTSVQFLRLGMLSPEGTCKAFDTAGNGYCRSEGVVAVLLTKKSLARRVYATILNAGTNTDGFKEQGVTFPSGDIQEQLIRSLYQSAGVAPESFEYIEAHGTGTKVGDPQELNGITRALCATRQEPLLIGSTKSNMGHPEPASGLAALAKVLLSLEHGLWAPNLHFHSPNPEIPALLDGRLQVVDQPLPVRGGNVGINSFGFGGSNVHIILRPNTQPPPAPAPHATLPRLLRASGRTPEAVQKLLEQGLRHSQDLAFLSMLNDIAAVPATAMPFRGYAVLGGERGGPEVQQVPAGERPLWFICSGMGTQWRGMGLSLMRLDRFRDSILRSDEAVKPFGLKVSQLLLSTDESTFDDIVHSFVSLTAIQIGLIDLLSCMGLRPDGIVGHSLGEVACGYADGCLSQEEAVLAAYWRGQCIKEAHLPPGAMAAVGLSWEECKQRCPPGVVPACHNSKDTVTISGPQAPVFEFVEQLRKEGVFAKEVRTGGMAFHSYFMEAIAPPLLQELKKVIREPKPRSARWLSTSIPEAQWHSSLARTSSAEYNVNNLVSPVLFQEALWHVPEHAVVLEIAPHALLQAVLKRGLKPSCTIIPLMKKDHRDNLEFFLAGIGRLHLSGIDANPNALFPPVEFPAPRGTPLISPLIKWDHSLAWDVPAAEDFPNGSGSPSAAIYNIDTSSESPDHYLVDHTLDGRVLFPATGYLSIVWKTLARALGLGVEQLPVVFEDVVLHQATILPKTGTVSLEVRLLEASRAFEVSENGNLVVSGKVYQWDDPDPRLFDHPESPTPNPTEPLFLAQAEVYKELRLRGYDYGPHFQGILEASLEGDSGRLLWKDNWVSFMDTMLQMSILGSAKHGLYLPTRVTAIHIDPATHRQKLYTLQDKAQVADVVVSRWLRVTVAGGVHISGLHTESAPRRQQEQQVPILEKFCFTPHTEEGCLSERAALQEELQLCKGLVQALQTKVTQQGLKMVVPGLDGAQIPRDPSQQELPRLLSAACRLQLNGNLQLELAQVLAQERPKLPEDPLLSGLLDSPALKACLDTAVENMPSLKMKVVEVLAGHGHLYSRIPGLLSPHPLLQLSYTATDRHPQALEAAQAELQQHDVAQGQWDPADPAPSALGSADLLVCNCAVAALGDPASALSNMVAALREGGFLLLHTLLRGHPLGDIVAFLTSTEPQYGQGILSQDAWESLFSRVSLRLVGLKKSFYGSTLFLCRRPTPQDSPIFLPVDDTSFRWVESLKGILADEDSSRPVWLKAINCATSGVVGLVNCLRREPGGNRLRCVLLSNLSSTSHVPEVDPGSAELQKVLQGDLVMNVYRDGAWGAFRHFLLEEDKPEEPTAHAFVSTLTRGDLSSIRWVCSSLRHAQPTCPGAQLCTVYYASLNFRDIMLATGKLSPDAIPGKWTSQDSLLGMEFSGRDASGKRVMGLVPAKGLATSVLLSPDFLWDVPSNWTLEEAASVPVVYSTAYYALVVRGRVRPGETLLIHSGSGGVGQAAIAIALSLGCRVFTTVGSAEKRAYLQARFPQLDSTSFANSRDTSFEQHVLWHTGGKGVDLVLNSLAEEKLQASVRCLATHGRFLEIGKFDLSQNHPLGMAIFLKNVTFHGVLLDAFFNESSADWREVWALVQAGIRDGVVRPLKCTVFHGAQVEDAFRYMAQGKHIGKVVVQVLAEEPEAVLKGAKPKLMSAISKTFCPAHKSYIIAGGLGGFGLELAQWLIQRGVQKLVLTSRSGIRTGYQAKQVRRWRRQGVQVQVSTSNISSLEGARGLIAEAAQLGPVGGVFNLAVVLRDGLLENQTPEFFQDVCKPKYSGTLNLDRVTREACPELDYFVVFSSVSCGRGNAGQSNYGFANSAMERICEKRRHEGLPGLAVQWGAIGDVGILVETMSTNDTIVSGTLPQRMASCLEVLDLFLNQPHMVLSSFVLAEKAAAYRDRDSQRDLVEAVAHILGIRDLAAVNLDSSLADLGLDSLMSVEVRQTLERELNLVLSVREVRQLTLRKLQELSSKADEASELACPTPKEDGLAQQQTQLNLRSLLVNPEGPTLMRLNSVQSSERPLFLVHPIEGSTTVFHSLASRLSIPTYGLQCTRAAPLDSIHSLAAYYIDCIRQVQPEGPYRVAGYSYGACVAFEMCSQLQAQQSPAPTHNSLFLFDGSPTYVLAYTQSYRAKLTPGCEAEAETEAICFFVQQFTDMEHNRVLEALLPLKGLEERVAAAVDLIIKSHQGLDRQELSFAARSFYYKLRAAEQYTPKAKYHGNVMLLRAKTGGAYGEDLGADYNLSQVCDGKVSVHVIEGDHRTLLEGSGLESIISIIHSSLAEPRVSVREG
# Procedure: Spectrophotometric fatty acid synthase assay: The fatty acid synthase assay was performed in a total volume of 451 µl with the following components: 18.88 µg of purified OA-519 fatty acid synthase from the ZR-75-1 breast carcinoma cell line as described in Example 2, 25 nanomoles acetyl-CoA, 75 nanomoles NADPH, and 50 µl of 1 molar potassium phosphate, pH 6.6 at 25°C. The substrate malonyl-CoA was added at concentrations of 0.5 and 0.6 micromolar in the presence of 0, 9.9, 148, 198, or 397 micromolar cerulenin. HPLC grade water was added to achieve a final volume of 451 µl for all assays.
# The enzyme, NADPH, acetyl-CoA, phosphate, cerulenin, and water were combined, vortexed, and incubated in a Beckman DU 650 spectrophotometer at 37°C. Oxidation of NADPH was monitored at 340 nm without substrate to determine background for 2 min. Malonyl-CoA was then added to the reaction cuvette, mixed, and incubated at 37°C while NADPH oxidation was determined at 10 second intervals at 340 nm in the spectrophotometer for a total of 2 min. All determinations were performed in duplicate.
# Results: The spectrophotometric data was plotted according to Dixon (Dixon, M., Biochem. J., 55:170-171, 1953) which graphs inhibitor concentration versus 1/v for each given substrate concentration. […]
# H125 lung carcinoma line = experiment: Growth inhibition assay without oleic acid, single 24 h time point; type: cell-based; conditions: no oleic acid, line with 11.6 picomoles per minute enzyme activity
# Procedure: as §1
# Growth Inhibition Assay: Anti-proliferative activity of cerulenin for each cell line was determined using the same assay and drug concentrations described in Example 5, except that no oleic acid was added and a single 24 h time point was taken.
# condensing enzyme = condensing enzyme (Saccharomyces cerevisiae, UniProt P19097); conditions: report of Morisaki, et. al.; cited from earlier work
# H'27 = experiment: Crystal violet growth inhibition assay, 48 hour exposure; type: cell-based; conditions: Homo sapiens, read-out: ID50 (the source's name)
# Procedure: as §2
# SW480 = experiment: as above; type: cell-based; conditions: Homo sapiens, read-out: ID50 (the source's name)
# Procedure: as §2
# ZR-75-1 = experiment: as above; type: cell-based; conditions: Homo sapiens, read-out: ID50 (the source's name)
# Procedure: as §2
# [10] = SK-BR-3, 48 h, read-out: ID50 (µg/ml)
# [11] = SK-BR-3, 48 hours, dose giving 50% reduction of control absorbance, quadruplicate, read-out: ID50 (the source's name)
compound,measurement,setting,value
Nc1nc(N)nc(Nc2ccc([As]3SCC(CO)S3)cc2)n1 (centres unmarked) [melarsoprol],effect on normal human fibroblasts,normal human fibroblasts,little effect
same,effect on carcinoma cells,ZR-75-1 cells [1],anti-proliferative
O=C(O)C(=O)CBr [Bromopyruvate],IC50,[2]; [10],52 µg/mL
CCC/C(=N\OCC)C1=C(O)CC(CC(C)SCC)CC1=O (centres unmarked) [Sethoxydim],IC50,[2]; [10],9.5 µg/mL
"CCC/C=C/C/C=C/C=C/C=NN=NO [Triacsin C, 1-hydroxy-3-(E, E, E-2', 4', 7' - undecatrienylidine) triazene]",growth inhibition,Vero,inhibit growth
same,IC50,ZR-75-1 cells [3]; cerulenin added at a level approximating its ID50,< 1 µM
same,IC50,"ZR-75-1 cells [3]; triacsin-C alone, read-out: ID50 (the source's name)",~15 µM
same,concentration causing growth inhibition,Raji cells,1.0 µM
same,growth inhibition,Hela cells,inhibit growth
same,IC50,[4],8.7 µM
CCN1C(=O)C=CC1=O [N-ethylmaleimide],IC50,[2]; [10],0.9 µg/mL
Cc1cc2c(C(C)C)c(O)c(O)c(C=O)c2c(O)c1-c1c(C)cc2c(C(C)C)c(O)c(O)c(C=O)c2c1O [Gossypol],IC50,[2]; [10],3.1 µg/mL
CC(C)(COP(=O)(O)OP(=O)(O)OC[C@H]1O[C@@H](n2cnc3c(N)ncnc32)[C@H](O)[C@@H]1OP(=O)(O)O)[C@@H](O)C(=O)NCCC(=O)NCCSCC(=O)O [S-carboxymethyl CoA],IC50,[2]; [11],61.4 µg/mL
NC(=O)CI [Iodoacetamide],IC50,[2]; [10],0.3 µg/mL
"C/C=C/C/C=C/CCC(=O)[C@H]1O[C@H]1C(N)=O [cerulenin, (2S) (3R) 2,3-epoxy-4-oxo-7,10 dodecadienoyl amide]",IC50,TSU-pr1,3 to 4 µg/mL
same,IC50,Dupro-1,3 to 4 µg/mL
same,concentration at which inhibition occurs,viral HIV protease,5 mg/mL
same,effect on growth,"normal human fibroblasts; cerulenin 6.25 µg/ml, 0.5 millimolar oleic acid",unaffected
same,effect on normal human fibroblasts,normal human fibroblasts,little effect
same,cholesterol synthesis,MCF-7 cells [5],mild inhibition
same,cholesterol synthesis,SKBR3 cells,stimulation
same,inhibition at 6.25 µg/mL,"ZR-75-1 cells [1]; Homo sapiens, ZR-75-1, cerulenin 6.25 µg/ml, by 48 h, 0.5 millimolar oleic acid, read-out: growth inhibited",> 80%
same,effect on carcinoma cells,ZR-75-1 cells [1],anti-proliferative
same,IC50,[2]; [11],3.6 µg/mL
same,reversal of growth inhibition by oleate,ZR-75-1 cells [6],virtually complete reversal of growth inhibition
same,cell kill,MCF-7 cells [7],greater than three logs of cell kill
same,incorporation of 14C-acetate into acyl-glycerides,[8],consistently and significantly inhibited in a dose-related manner
same,Ki,"[9]; for the substrate malonyl-CoA, Dixon plot, enzyme purified from ZR-75-1, read-out: apparent Ki",32 µM
same,type of inhibition of OA-519 fatty acid synthase activity,[9]; purified OA-519,non-competitive inhibitor
same,growth inhibition,H125 lung carcinoma line,48%
CCCCCCCCC(=O)C1OC1C(N)=O (centres unmarked) [Tetrahydrocerulenin],times less potent than cerulenin,condensing enzyme,80-150 times
"CCCCCCCCCCCCCCOc1ccc(C(=O)O)o1 [TOFA, 5 (tetradecyloxy)-2-furoic acid]",IC50,H'27,44.7 µg/mL
same,IC50,SW480,59.8 µg/mL
same,IC50,ZR-75-1,0.8 µg/mL
same,IC50,[2]; [11],4.6 µg/mL
